Data as given in the NIST ThermoML archive (doi:10.1021/je3007666).
± gives the expanded uncertainty stated by the source.

Experiment: relative permittivity at zero frequency (dimensionless); xn = mol fraction of the nth substance listed
Settings: 100 kPa, Liquid, Dielectrometer

CC(C)CO [2-methyl-1-propanol] + CCCCO
relative permittivity at zero frequency
Settings	288.15 K	293.15 K	298.15 K	303.15 K	308.15 K
x1 = 0.0505	19.03 ± 0.06	18.3 ± 0.06	17.59 ± 0.06	16.92 ± 0.06	16.26 ± 0.06
x1 = 0.1011	19.05 ± 0.06	18.31 ± 0.06	17.61 ± 0.06	16.93 ± 0.06	16.27 ± 0.06
x1 = 0.1496	19.06 ± 0.06	18.33 ± 0.06	17.62 ± 0.06	16.94 ± 0.06	16.28 ± 0.06
x1 = 0.2001	19.08 ± 0.06	18.34 ± 0.06	17.63 ± 0.06	16.95 ± 0.06	16.29 ± 0.06
x1 = 0.2488	19.1 ± 0.06	18.36 ± 0.06	17.65 ± 0.06	16.97 ± 0.06	16.31 ± 0.06
x1 = 0.3011	19.12 ± 0.06	18.38 ± 0.06	17.66 ± 0.06	16.98 ± 0.06	16.32 ± 0.06
x1 = 0.3497	19.14 ± 0.06	18.4 ± 0.06	17.68 ± 0.06	16.99 ± 0.06	16.33 ± 0.06
x1 = 0.399	19.16 ± 0.06	18.41 ± 0.06	17.7 ± 0.06	17.01 ± 0.06	16.34 ± 0.06
x1 = 0.4511	19.18 ± 0.06	18.43 ± 0.06	17.71 ± 0.06	17.02 ± 0.06	16.36 ± 0.06
x1 = 0.5021	19.21 ± 0.06	18.44 ± 0.06	17.73 ± 0.06	17.04 ± 0.06	16.37 ± 0.06
x1 = 0.5489	19.23 ± 0.06	18.46 ± 0.06	17.75 ± 0.06	17.06 ± 0.06	16.39 ± 0.06
x1 = 0.6004	19.26 ± 0.06	18.5 ± 0.06	17.77 ± 0.06	17.07 ± 0.06	16.4 ± 0.06
x1 = 0.6488	19.28 ± 0.06	18.52 ± 0.06	17.79 ± 0.06	17.09 ± 0.06	16.42 ± 0.06
x1 = 0.6975	19.31 ± 0.06	18.55 ± 0.06	17.81 ± 0.06	17.11 ± 0.06	16.43 ± 0.06
x1 = 0.751	19.34 ± 0.06	18.57 ± 0.06	17.83 ± 0.06	17.13 ± 0.06	16.45 ± 0.06
x1 = 0.8004	19.37 ± 0.06	18.6 ± 0.06	17.86 ± 0.06	17.15 ± 0.06	16.46 ± 0.06
x1 = 0.848	19.4 ± 0.06	18.62 ± 0.06	17.88 ± 0.06	17.17 ± 0.06	16.48 ± 0.06
x1 = 0.8995	19.43 ± 0.06	18.65 ± 0.06	17.9 ± 0.06	17.19 ± 0.06	16.5 ± 0.06
x1 = 0.9506	19.47 ± 0.06	18.68 ± 0.06	17.93 ± 0.06	17.21 ± 0.06	16.52 ± 0.06
x1 = 1	19.51 ± 0.06	18.71 ± 0.06	17.96 ± 0.06	17.23 ± 0.06	16.53 ± 0.06
